Assay results published in patent US20230080270A1, “NANOPARTICLES ENCAPSULATING SMALL MOLECULES” (ETH ZURICH, priority 2020, published 2023).
“And” between values parts separate entries of the source, which are not always exact repeats. Equal entries are not always repeated.

Assays:
HeLa cells [1] = assay: Cell viability assay (WST-8-based Cell Counting Kit-8); parameters: species or system human; settings: 2.5 μM lapatinib, 18 hour incubation
Protocol: (§1) Cell culture. HeLa cells were maintained in Dulbecco's Modified Eagle Medium (high glucose) supplemented with 10% fetal bovine serum (FBS), 2 mM L-glutamine, 2 mM GlutaMAX and 1 μg/mL gentamicin. Cells were cultured in 5% CO2 at 37° C. and typically split in a 1:4 ratio every 3 days. Only passage numbers between 7-20 were used for all experiments.
Cell viability assay. Cytotoxicity was assessed using the WST-8-based Cell Counting Kit-8 from Sigma according to the manufacturer's instructions. HeLa cells were seeded at a density of 5,000 cells per well in a 96-well plate in 100 μL of culture medium and allowed to recover at 37° C. and 5% CO2 for 24 hours. Protein, surfactant and drug samples were prepared by serial dilution in sterile PBS. As a negative control 10 μL of 10% Triton X-100 in PBS were used per well. The positive control was just PBS. […] The plate was then incubated for 2-4 hours at 37° C. and 5% CO2 before measuring absorbance at 450 nm. The absorbance of CKK-8 in culture media, without cells, was used for background subtraction and samples were normalized to untreated cells to provide the values shown in FIG. 4e,f. Samples were measured in sextuplicate with biological replicates of different protein batches.

[2] = cited from earlier work
HeLa cells [3] = assay: Flow cytometry of cellular uptake in HeLa cells; assay type: cell-based, human; settings: 500 nM Nile Red, population gating based on the PBS control
Protocol: as §1
Flow cytometry. HeLa cells were seeded at a density of 30,000 cells per well in a 24-well plate in 500 μL of culture medium and allowed to recover at 37° C. and 5% CO2 for 24 hours to reach 60-80% confluency. Both OP protein and surfactant solutions were sterilized by filtration through a 0.22 μm membrane, and stocks were prepared in sterile PBS. Nile Red solution (50 μM) in 1:1 EtOH:H2O was used without sterilization. OP capsid-micelle complexes were prepared as described above. For each well 20 μL of sample in PBS was added to 200 μL of culture media to give the final concentration of 200 nM. Cells were incubated for 16-20 h in 5% CO2 at 37° C. before washing with PBS and trypsinization (0.05% Trypsin-EDTA (Thermo Fisher Scientific, USA), 4 minutes at 37° C.). Cells were collected in cold culture medium and washed twice with cold PBS before resuspension in flow cytometry buffer (PBS with 5% FBS).

[4] = in PBS buffer; cited from earlier work
[5] = Native agarose gel electrophoresis of OP with increasing SDS equivalents; assay type: physicochemical; settings: up to 2000 SDS molecules per cage
From the text: Native agarose gel electrophoresis.
Cage-templated micelle formation. Sodium dodecyl sulfate (SDS) was chosen as the anionic surfactant (FIG. 2a), due to its aqueous solubility and the potential for favourable hydrogen bond formation between the sulfate headgroup and the many arginine residues on the interior surface of the OP capsid. As SDS is typically used as a protein denaturant, the inventors were curious if charge and shape complementarity of the OP cage could be leveraged to drive formation of a scaffolded micelle, rather than allowing hydrophobic interactions with the protein core to dominate, a pathway that leads to disruption of protein structure. As such, OP was subject to increasing molar equivalents of SDS, up to 2000 molecules per cage, and analyzed by native gel electrophoresis (FIG. 2b).

[6] = Nile Red fluorescence titration (surfactant content and cargo capacity); assay type: physicochemical; settings: two equivalents of Nile Red, increasing SDS content
Protocol: Nile Red fluorescence. For a typical fluorimetry experiment, 800 μL samples in PBS buffer were used. For the surfactant loading kinetics the ionic strength was adjusted by dissolving appropriate amounts of NaCl in PBS buffer. Stock solutions of Nile Red in acetone:water (1:1 v/v), or DMSO at concentrations of 50-500 μM were used. The excitation wavelength was set to 535 nm for all experiments.
This number fits with a value of —730 calculated from the volumetric capacity of the OP cavity (˜256 nm^3) and the average volume occupied by an SDS molecule in a micelle (Methods section).
As cargo-carrying is an important characteristic of the protein-micelle complex, the inventors also used fluorescence titration to determine the number of Nile Red molecules that could be accommodated per cage. Single equivalents of Nile Red were added stepwise to a solution of OP:SDS complexes and the fluorescence spectra measured for each addition (FIG. 3d). Between 1-5 molecules of Nile Red per cage, a logarithmic increase in fluorescence emission is observed with each equivalent. From 5-20 molecules of Nile Red a steady decrease in fluorescence is observed, and above 20 a steady increase in fluorescence is observed. We attribute these three distinct stages to: i) Nile Red encapsulation, ii) self-quenching and iii) excess free dye. […]

[7] = Effective concentration / volumetric capacity calculations; settings: OP cavity ~256 nm^3; SDS micelle radius 17.5 Å, aggregation number 64
From the text: Effective concentration calculations. The volume of the OP lumenal cavity (255,528 A) was estimated as a sphere with a radius of 39.4 A. This radius determined by averaging the distances between lumenally exposed residues from the reported crystal structure (Edwardson et al., 2018, op. cit.), using the UCSF Chimera software (Pettersen, E. F. et al. UCSF Chimera—a visualization system for exploratory research and analysis. J. Comput. Chem. 25, 1605-1612 (2004)). The effective concentration of SDS was simply estimated as the number of moles SDS per lumenal cavity volume. The expected number of SDS molecules was estimated by first determining the volume occupied by an individual SDS molecule in a micelle, from the reported average values of SDS micelle radius (17.5 Å) and aggregation number (n=64). Division of the OP cavity volume by the average volume of a single SDS molecule packed into micellar aggregates gives an estimated value of 729 molecules per OP cage, which is within error of the volume estimations and experimental results, which approximate 800 molecules.

For `CS(=O)(=O)CCNCc1ccc(-c2ccc3ncnc(Nc4ccc(OCc5cccc(F)c5)c(Cl)c4)c3c2)o1` [lapatinib], the “effect on cell viability” value (HeLa cells [1]) was “negligible effect”.

For `CCN(CC)c1ccc2nc3c4ccccc4c(=O)cc-3oc2c1` [Nile Red], the “solubility limit in organic solvents” value [2] is given as under 5 mM and the “fraction of cells Nile Red positive” value (HeLa cells [3]) is given as 58%.

For `CCCCCCCCCCCCOS(=O)(=O)[O-].[Na+]` [SDS, Sodium dodecyl sulfate], the critical micelle concentration [4] is given as 4 to 5 mM.

B1: OP: 24-mer octahedral porous protein cage with positively charged interior, polypeptide SEQ ID NO: 2 (protein)
chain: MSQAIGILELRSIAAGMELGDAMLKSANVDLLVSKTISRGKFLLMLGGDIGAIQQAIETGTSQAGRLLVDSLVLANIHPSVLPAISGLNSVDKRQAVGIVETRSVAACISAADRAVKGSNVTLVRVHMARGIGGKCYMVVAGDVSDVALAVTVASSSAGAYGRLVYASLIPRPHEAMWRQMVEGLEHHHHHH
modifications: 24-mer cage assembly
In the case of B1, the “SDS equivalents per protein cage up to which no change to quaternary structure” value [5] is reported as “approximately 800 equivalents of SDS per protein cage”, the “surfactant molecules per cage at plateau of Nile Red fluorescence” value [6] is reported as about 800 molecules per cage and the “SDS molecules per OP cage calculated from cavity volume and volume of an SDS molecule in a micelle” value [7] is reported as 729 molecules per OP cage and 730 molecules per OP cage.
